Literature values as cited in US20230047788A1, “COMPOSITIONS COMPRISING 5-CHOLESTEN-3, 25-DIOL, 3-SULFATE (25HC3S) OR PHARMACEUTICALLY ACCEPTABLE SALT THEREOF AND AT LEAST ONE CYCLIC OLIGOSACCHARIDE” (Virginia Commonwealth University, priority 2016, published 2023).

Conditions: at 25°C; cited from earlier work

CC(O)COC[C@H]1O[C@@H]2O[C@H]3[C@H](O)[C@@H](O)[C@@H](O[C@H]4[C@H](O)[C@@H](O)[C@@H](O[C@H]5[C@H](O)[C@@H](O)[C@@H](O[C@H]6[C@H](O)[C@@H](O)[C@@H](O[C@H]7[C@H](O)[C@@H](O)[C@@H](O[C@H]8[C@H](O)[C@@H](O)[C@@H](O[C@H]1[C@H](O)[C@H]2O)O[C@@H]8COCC(C)O)O[C@@H]7COCC(C)O)O[C@@H]6COCC(C)O)O[C@@H]5COCC(C)O)O[C@@H]4COCC(C)O)O[C@@H]3COCC(C)O (stereo partly drawn) [HP-β-CD, hydroxypropyl β-cyclodextrin]
solubility in water: 50 % w/v
